One assay concerns the target RET V804L (Homo sapiens (Human), UniProt P07949, V804L). The experiment in a line: RET V804L Gatekeeper Mutant Assay at KM (Caliper electrophoretic mobility shift). Type of assay: biochemical. Particulars: 10 μM ATP, 25° C., 120 minutes.
The target of another assay is wild type RET (Homo sapiens (Human), UniProt P07949). The experiment in a line: RET Wild Type Assay at KM (Caliper electrophoretic mobility shift). Type of assay: biochemical. The note with it: 25 μM ATP, 25° C., 120 minutes.

Some results are limits rather than exact numbers.

Chain of RET V804L (P07949 658-1114 V804L): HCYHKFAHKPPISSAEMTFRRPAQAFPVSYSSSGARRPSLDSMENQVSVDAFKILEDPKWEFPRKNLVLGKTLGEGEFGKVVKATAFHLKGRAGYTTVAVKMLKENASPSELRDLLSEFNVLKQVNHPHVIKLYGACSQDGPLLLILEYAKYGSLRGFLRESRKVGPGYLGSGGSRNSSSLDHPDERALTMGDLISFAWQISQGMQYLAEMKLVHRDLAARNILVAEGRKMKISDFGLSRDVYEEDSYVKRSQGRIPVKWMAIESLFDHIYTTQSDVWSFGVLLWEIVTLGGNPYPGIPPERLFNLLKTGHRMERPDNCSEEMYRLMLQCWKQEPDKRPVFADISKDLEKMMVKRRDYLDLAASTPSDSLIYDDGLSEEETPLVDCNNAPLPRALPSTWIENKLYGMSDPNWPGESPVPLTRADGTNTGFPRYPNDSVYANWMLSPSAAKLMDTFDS
Chain of wild type RET (P07949 658-1114): as the sequence (P07949 658-1114 V804L) above, with L147V counted along it

As usually defined, the IC50 is the concentration at which inhibition is half-maximal. As to `Cc1cc(Nc2cc(C)[nH]n2)nc([C@]2(O)CC[C@@H](C(=O)N[C@@H](C)c3ccc(-n4cc(F)cn4)nc3)OC2)c1` [Compound 146], the IC50 on RET V804L and on wild type RET was below 10 nM each time.
`CO[C@]1(C(=O)N[C@@H](C)c2ccc(-n3cc(F)cn3)nc2)CC[C@@](O)(c2cc(C)cc(Nc3cc(C)[nH]n3)n2)CC1` [Compound 138]: the IC50 on RET V804L and on wild type RET was below 10 nM each time.
As for `CCO[C@]1(C(=O)N[C@@H](C)c2ccc(-n3cc(F)cn3)nc2)CC[C@H](c2nc(C)cc(Nc3cc(C)[nH]n3)n2)CC1` [Compound 136], the IC50 on RET V804L and on wild type RET was below 10 nM in each case.
`Cc1cc(Nc2cc(C)[nH]n2)nc([C@]2(O)CC[C@@H](C(=O)N[C@@H](C)c3ccc(-n4cc(F)cn4)nc3)CC2)c1` [Compound 120, (1s,4R)—N—((S)-1-(6-(4-fluoro-1H-pyrazol-1-yl)pyridin-3-yl)ethyl)-4-hydroxy-4-(4-methyl-6-(5-methyl-1H-pyrazol-3-ylamino)pyridin-2-yl)cyclohexanecarboxamide]: the IC50 at RET V804L and at wild type RET was below 10 nM each time.
As to `CO[C@]1(C(=O)NCc2cnc(-n3cc(F)cn3)cn2)CC[C@H](c2nc(C)cc(Nc3cc(C)[nH]n3)n2)CC1` [Compound 150], the IC50 on RET V804L and at wild type RET was below 10 nM throughout.
Turning to `Cc1cc(Nc2cc(C)[nH]n2)nc([C@H]2CC[C@H](C(=O)NCc3ccc(-n4nc(C)cc4C)nc3)CC2)n1` [Compound 106], the results for the IC50 on RET V804L and on wild type RET were 10 to 100 nM and below 10 nM, respectively.
For `Cc1cc(Nc2cc(C)[nH]n2)nc([C@H]2CC[C@H](C(=O)NCc3ccc(-n4cccn4)nc3)CC2)n1` [Compound 101], in that order: below 10 nM and below 10 nM.
On the same counts, the results for `Cc1cc(Nc2cc(C)[nH]n2)nc([C@@H]2CC[C@@H](C(=O)N[C@@H](C)c3ccc(-n4cc(F)cn4)nc3)C(C)(C)C2)n1` [Compound 124] are 10 to 100 nM and above 100 nM.
In the case of `Cc1cc(Nc2cc(C)[nH]n2)nc(C2=CCC(C(=O)N[C@@H](C)c3ccc(-n4cc(F)cn4)nc3)CC2)n1` (stereo partly shown) [Compound 144], the IC50 at RET V804L and on wild type RET was below 10 nM each time.
On to `Cc1cc(Nc2cc(C)[nH]n2)nc([C@H]2CC[C@H](C(=O)N[C@@H](C)c3ccc(-n4cccn4)nc3)CC2)n1` [Compound 103], for which the IC50 at RET V804L and at wild type RET was below 10 nM each time.
For `CO[C@]1(C(=O)N[C@@H](C)c2ccc(-n3cc(F)cn3)nc2)CC[C@](O)(c2cc(C)cc(Nc3cc(C)[nH]n3)n2)CC1` [Compound 137], the IC50 on RET V804L and at wild type RET was above 100 nM each time.
As to `Cc1cc(Nc2cc(C)[nH]n2)nc([C@@H]2CC[C@@H](C(=O)N[C@@H](C)c3ccc(-n4cc(F)cn4)nc3)[C@@H](C)C2)n1` [Compound 116], the IC50 on RET V804L is 10 to 100 nM; at wild type RET, above 100 nM.
For `Cc1cc(Nc2cc(C)[nH]n2)nc([C@]2(O)CC[C@@H](C(=O)NCc3ccc(-n4cccn4)nc3)C(C)(C)C2)c1` [Compound 114], in that order: below 10 nM and below 10 nM.
On the same counts, the results for `Cc1cc(Nc2cc(C)[nH]n2)nc([C@]2(O)CC[C@H](C(=O)N[C@@H](C)c3ccc(-n4cc(F)cn4)nc3)CC2)c1` [Compound 119] are above 100 nM and above 100 nM.
Regarding `Cc1cc(Nc2cc(C)[nH]n2)nc([C@H]2CC[C@@H](C(=O)N[C@@H](C)c3ccc(-n4cccn4)nc3)CC2)n1` [Compound 102], the IC50 on RET V804L and on wild type RET was above 100 nM throughout.
`CO[C@]1(C(=O)N[C@@H](C)c2cnc(-n3cc(F)cn3)cn2)CC[C@H](c2nc(C)cc(Nc3cc(C)[nH]n3)n2)CC1` [Compound 131]: the IC50 at RET V804L and at wild type RET was below 10 nM each time.
As to `Cc1cc(Nc2cc(C)[nH]n2)nc([C@@]2(O)CC[C@H](C(=O)NCc3ccc(-n4cccn4)nc3)[C@H](C)C2)c1` [Compound 107], the IC50 at RET V804L and on wild type RET was below 10 nM in each case.
Take `Cc1cc(Nc2cc(C)[nH]n2)nc([C@H]2CC[C@H](C(=O)NCc3ccc(-n4cc(Cl)cn4)nc3)CC2)n1` [Compound 113]: the IC50 on RET V804L and at wild type RET was below 10 nM in each case.
As to `Cc1cc(Nc2cc(C)[nH]n2)nc([C@@H]2CC[C@@H](C(=O)NCc3ccc(-n4cccn4)nc3)[C@@H](C)C2)n1` [Compound 104], the IC50 at RET V804L and at wild type RET was above 100 nM each time.
For `Cc1cc(Nc2cc(C)[nH]n2)nc([C@H]2CC[C@@H](C(=O)NCc3ccc(-n4cccn4)nc3)CC2)n1` [Compound 100], the half-maximal inhibitory concentration (IC50) on RET V804L and at wild type RET was above 100 nM in each case.

For the origin of these results see US10584114B2, “Inhibitors of RET” (BLUEPRINT MEDICINES CORPORATION, priority 2015, dated 2020).
